In US20260132128A1, “COMPOUND FOR RECOVERING P53 MUTATION FUNCTION AND USE THEREOF” (SHENZHEN ZHONGGE BIOLOGICAL TECHNOLOGY CO., LTD., priority 2022, published 2026):

Test system: BxPC-3 cells
Assay: BxPC-3 cell proliferation test (CTG)
Assay type: cell-based
Conditions: Homo sapiens, 144 h, 6 days
Description: To detect the inhibitory effects of the aforementioned compounds on the proliferation ability of BxPC-3 cells, 125 BxPC-3 cells (ATCC®CRL-1687) were seeded into a 384-well plate (Corning 3765), 35 μL per well, and placed in a constant temperature incubator at 37° C. and 5% CO2 overnight. Then, 40 nL of the compound was added to the 384-well plate using an Echo 655 Liquid Handler, with a maximum final concentration of 10 μM, 1:3 serial dilution, and in a total of 10 doses. Incubation was performed at 37° C., 5% CO2 for 6 days. The plate was taken out from the incubator and equilibrated at room temperature for 10 minutes. 20 μL of CTG (Promage G7572) was added to each well of the plate according to the platemap. The plate was centrifuged at 1000 rpm for 1 minute. The lysis of cells was induced by mixing on a shaker for 2 minutes. The plate was centrifuged at 1000 rpm for 1 minute. Incubation was performed at room temperature for 10 minutes to stabilize luminescence signals. Luminescence values were recorded by Envision (PerkinElmer 2105-0020). GraphPad 9.0 was used to fit the inhibition rate and compound concentration into a nonlinear regression curve (dose response-variable slope) to calculate GI50, inhibition rate={1−(A−B)/(C−B)}*100%, A=signal value of compound; B=average signal of blank control; C=average signal of negative control (wherein the negative control was 0.1% DMSO).

GI50, < 1 µM:
CNC(=O)c1ccc(NCC#Cc2nc3c(NC4CCC(N5CC6(COC6)C5)CC4F)cccn3c2CC(F)(F)F)c(OC)c1 (single isomer, unassigned) [Compound 35-6i]
CNC(=O)c1ccc(NCC#Cc2nc3c(N[C@@H]4CCN(C)C[C@@H]4F)cccn3c2CC(F)(F)F)c(OC)c1 [Compound 5]
[2H]C([2H])([2H])NC(=O)c1ccc(NCC#Cc2nc3c(NC4CC[C@@H](N5CC6(COC6)C5)C[C@@H]4F)cccn3c2CC(F)(F)F)c(OC([2H])([2H])[2H])c1 (stereo partly shown) [Compound 64]
CNC(=O)c1ccc(NCC#Cc2nc3c(NC4CC[C@@H](N5CC6(COC6)C5)C[C@@H]4F)cccn3c2CC(F)(F)F)c(OCF)c1 (stereo partly shown) [Compound 58]
